# From patent US20240109853A1 (Shanghai Yao Yuan Biotechnology Co., Ltd., priority 2020, published 2024)
# pIC50: −log10 of the molar value.
# Biological target: ALPK1 (Homo sapiens (Human), UniProt Q96QP1)
# Test: ALPK1 in vitro kinase assay (HTRF of TIFA phosphorylation)
# Format: biochemical
# Details: not given
# From the text: In embodiments, a compound of Formula I, or a subembodiment described herein, is an inhibitor of ALPK1 as measured, for example, in an in vitro kinase assay, or an assay designed to measure the activation of downstream targets of ALPK1 pathway activation, for example NFkB transcriptional activation and the secretion of proinflammatory cytokines and chemokines, such as IL-8, which is also referred to as CXCL-8. In general, the computer program XL fit was used for data analysis, including non-linear regression analysis. The half maximal inhibitory concentration (IC50) was used as the measure of a compound's effectiveness in the assays. IC50 values were determined using the following logistic equation Y=min+(max−min)/(1+(X/IC50^−hillslpoe), where Y is the value at the compound concentration, X. The concentration response curve fitting was conducted using GraphPad Prism version 6.00 software.
# ALPK1 kinase activity was measured in an in vitro assay using ADP-Heptose as the ALPK1 ligand and activator of its kinase activity and TIFA protein as the ALPK1 phosphorylation substrate. Since phosphorylated TIFA proteins oligomerize, Homogeneous Time-Resolved Fluorescence (HTRF) was used to measure protein:protein interaction between HA-tagged TIFA proteins as an indicator of TIFA phosphorylation.
# In brief, dose-response studies were performed with HEK293 cells cultured in Dulbecco's Modified Eagle Medium (DMEM) supplemented 10% fetal bovine serum (FBS, Hyclone™) containing antibiotics (pen/strep, G418) in 384-well assay plates. Each well contained 0.1 mg TIFA, ALPK1 (2 nM final concentration in reaction mixture) and kinase buffer (100 mM of HEPES pH 7.4, 4 mM DTT, 40 mM MgCl2, 20 mM of β-Glycerol phosphate disodium salt, 0.4 mM of Na3VO4, 0.16 mg/mL). Titrations of the test compounds were prepared in dimethylsulphoxide (DMSO). The reaction was initiated by addition of ATP and ADP-Heptose.
# For HTRF, samples were incubated with a Tb cryptate-labeled anti-HA antibody for capturing HA-tagged proteins according to the manufacturer's instructions (PerkinElmer™, CisBio™) and the fluorescence signal was quantified (Tecan Infinite F NANO+). HTRF signals were calculated as the HTRF ratio (ratio of fluorescence measured at 665 nm and 620 nm)×104 (thereby using the signal at 620 nm as an internal standard).
# IC50 values were determined using 3- or 4-parameter logistic equation using GraphPad Prism version 6.00. The reference compound, A027, was used as a positive control for each plate.
# ALPK1, sequence (Q96QP1 whole entry): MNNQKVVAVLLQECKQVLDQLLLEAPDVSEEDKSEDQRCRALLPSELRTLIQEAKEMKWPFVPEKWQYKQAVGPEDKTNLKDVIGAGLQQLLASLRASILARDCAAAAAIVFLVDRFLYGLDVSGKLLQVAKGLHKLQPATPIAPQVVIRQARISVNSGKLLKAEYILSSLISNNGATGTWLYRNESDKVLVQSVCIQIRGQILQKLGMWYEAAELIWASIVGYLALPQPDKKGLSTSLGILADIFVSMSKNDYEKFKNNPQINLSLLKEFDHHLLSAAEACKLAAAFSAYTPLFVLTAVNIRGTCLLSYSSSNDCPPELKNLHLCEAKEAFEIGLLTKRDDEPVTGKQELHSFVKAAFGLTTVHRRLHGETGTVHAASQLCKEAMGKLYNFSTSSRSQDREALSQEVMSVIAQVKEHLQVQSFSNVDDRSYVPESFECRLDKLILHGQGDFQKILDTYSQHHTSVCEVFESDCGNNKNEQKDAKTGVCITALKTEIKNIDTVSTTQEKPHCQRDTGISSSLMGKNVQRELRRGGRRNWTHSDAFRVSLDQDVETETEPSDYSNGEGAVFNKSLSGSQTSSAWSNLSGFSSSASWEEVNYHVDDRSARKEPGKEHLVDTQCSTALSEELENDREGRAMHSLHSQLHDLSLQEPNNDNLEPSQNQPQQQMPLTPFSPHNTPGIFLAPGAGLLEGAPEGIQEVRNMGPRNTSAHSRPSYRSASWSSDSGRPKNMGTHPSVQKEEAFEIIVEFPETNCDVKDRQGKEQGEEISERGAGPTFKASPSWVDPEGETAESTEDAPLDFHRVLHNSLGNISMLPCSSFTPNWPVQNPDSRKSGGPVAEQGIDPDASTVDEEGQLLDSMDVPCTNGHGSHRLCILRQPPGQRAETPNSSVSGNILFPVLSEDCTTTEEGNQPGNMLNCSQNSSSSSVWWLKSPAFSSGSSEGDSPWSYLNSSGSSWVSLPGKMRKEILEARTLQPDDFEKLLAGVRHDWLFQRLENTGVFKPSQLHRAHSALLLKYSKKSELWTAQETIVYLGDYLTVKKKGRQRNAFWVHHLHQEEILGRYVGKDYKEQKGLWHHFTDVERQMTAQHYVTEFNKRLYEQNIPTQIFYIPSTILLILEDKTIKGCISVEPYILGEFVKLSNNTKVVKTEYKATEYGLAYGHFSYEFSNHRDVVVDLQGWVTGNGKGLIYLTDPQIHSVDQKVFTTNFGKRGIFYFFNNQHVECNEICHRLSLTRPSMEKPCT
row,Compound,pIC50
1,"[2H]C([2H])(O)CNC(=O)Nc1nc([C@](C)(C#C)c2ccc(Cl)cc2)cs1 (single isomer, unassigned) [Example A320, 1-[4-[1-(4-chlorophenyl)-1-methyl-prop-2-ynyl]thiazol-2-yl]-3-(2,2-dideuterio-2-hydroxy-ethyl)urea]",7.36
2,"CC(C)(c1ccc(Br)cc1)c1csc(NC(=O)NCc2ccc(N3CCC(C(N)=O)CC3)cc2)n1 [Example A006, 1-(4-((3-(4-(2-(4-bromophenyl)propan-2-yl)thiazol-2-yl)ureido)methyl)phenyl) piperidine-4-carboxamide]",6.98
3,"CC1CNCCN1c1ccc(CNC(=O)Nc2nc(C(C)(C)c3ccc(Br)cc3)cs2)cc1 (stereo not drawn) [Example A029, 1-(4-(2-(4-bromophenyl)propan-2-yl)thiazol-2-yl)-3-(4-(2-methylpiperazin-1-yl)benzyl)urea]",7.14
4,"COc1ccc(C(C)(C)c2csc(NC(=O)NCc3cccc(N4CCNCC4)n3)n2)cc1 [Example A043, 1-(4-(2-(4-methoxyphenyl)propan-2-yl)thiazol-2-yl)-3-((6-(piperazin-1-yl)pyridin-2-yl)methyl)urea]",6.78
5,"CC(C)(c1ccc(Br)cn1)c1csc(NC(=O)NCc2ccc(N3CCNCC3)c(F)c2)n1 [Example A057, 1-(4-(2-(5-bromopyridin-2-yl)propan-2-yl)thiazol-2-yl)-3-(3-fluoro-4-(piperazin-1-yl)benzyl)urea]",6.61
6,"CCOc1ccc(C(C)(C)c2csc(NC(=O)NCc3ccc(N4CCNCC4)cc3)n2)cc1 [Example A059, 1-(4-(2-(4-ethoxyphenyl)propan-2-yl)thiazol-2-yl)-3-(4-(piperazin-1-yl)benzyl)urea]",6.57
7,"CC(C)(c1ccc(Cl)cc1)c1csc(NC(=O)NCc2cnc(N3CCC(N)C3)nc2)n1 (stereo not drawn) [Example A068, 1-((2-(3-aminopyrrolidin-1-yl)pyrimidin-5-yl)methyl)-3-(4-(2-(4-chlorophenyl)propan-2-yl)thiazol-2-yl)urea]",6.57

# Same assay, conditions: ALPK1 2 nM, TIFA substrate, ADP-Heptose activator, HTRF readout
row,Compound,pIC50
1,"C#CC(C)(c1ccc(Br)cc1)c1csc(NC(=O)[C@H]2C[C@H](CO)C2)n1 (mixture of isomers) [Example D005, rac-(1r,3r)-N-(4-(2-(4-bromophenyl)but-3-yn-2-yl)thiazol-2-yl)-3-(hydroxymethyl)cyclobutanecarboxamide]",7.01
2,"C#CC(C)(c1ccc(Br)cc1)c1csc(NC(=O)[C@H]2C[C@@H](CO)C2)n1 (mixture of isomers) [Example D006, rac-(1s,3s)-N-(4-(2-(4-bromophenyl)but-3-yn-2-yl)thiazol-2-yl)-3-(hydroxymethyl)cyclobutanecarboxamide]",7.40
3,"C#C[C@@](C)(c1ccc(F)cc1)c1csc(NC(=O)c2ccc(N3CCNCC3CO)cc2)n1 (stereo in doubt) [Example B069, N-[4-[1-(4-fluorophenyl)-1-methyl-prop-2-ynyl]thiazol-2-yl]-4-[2-(hydroxymethyl)piperazin-1-yl]benzamide]",7.70
4,"C#C[C@](C)(c1ccc(F)cc1)c1csc(NC(=O)c2ccc(N3CCNCC3CO)cc2)n1 (stereo in doubt) [Example B070, N-[4-[1-(4-fluorophenyl)-1-methyl-prop-2-ynyl]thiazol-2-yl]-4-[2-(hydroxymethyl)piperazin-1-yl]benzamide]",6.77
5,"C#C[C@@](C)(c1ccc(F)cc1)c1csc(NC(=O)c2ccc(N3CCNCC3CO)cc2)n1 (stereo in doubt) [Example B071, N-[4-[1-(4-fluorophenyl)-1-methyl-prop-2-ynyl]thiazol-2-yl]-4-[2-(hydroxymethyl)piperazin-1-yl]benzamide]",7.22
6,"C#C[C@](C)(c1ccc(F)cc1)c1csc(NC(=O)c2ccc(N3CCNCC3CO)cc2)n1 (stereo in doubt) [Example B072, N-[4-[1-(4-fluorophenyl)-1-methyl-prop-2-ynyl]thiazol-2-yl]-4-[2-(hydroxymethyl)piperazin-1-yl]benzamide]",6.59
7,"C#C[C@@](C)(c1ccc(Cl)cc1)c1csc(NC(=O)c2ccc(N3CCNC(CO)C3)cc2)n1 (stereo in doubt) [Example B077, N-(4-(2-(4-chlorophenyl)but-3-yn-2-yl)thiazol-2-yl)-4-(3-(hydroxymethyl)piperazin-1-yl)benzamide]",7.05
8,"C#C[C@](C)(c1ccc(Cl)cc1)c1csc(NC(=O)c2c(F)cc(N3CCC(N)C3)cc2F)n1 (stereo in doubt) [Example B085, 4-(3-aminopyrrolidin-1-yl)-N-(4-(2-(4-chlorophenyl)but-3-yn-2-yl)thiazol-2-yl)-2,6-difluorobenzamide]",6.40
9,"C#C[C@@](C)(c1ccc(Cl)cc1)c1csc(NC(=O)c2c(F)cc(N3CCC(N)C3)cc2F)n1 (stereo in doubt) [Example B087, 4-(3-aminopyrrolidin-1-yl)-N-(4-(2-(4-chlorophenyl)but-3-yn-2-yl)thiazol-2-yl)-2,6-difluorobenzamide]",7.42
10,"C#C[C@@](C)(c1ccc(Cl)cc1)c1csc(NC(=O)c2c(F)cc(N3CCC(N)C3)cc2F)n1 (stereo in doubt) [Example B088, 4-(3-aminopyrrolidin-1-yl)-N-(4-(2-(4-chlorophenyl)but-3-yn-2-yl)thiazol-2-yl)-2,6-difluorobenzamide]",7.38
11,"C#C[C@](C)(c1ccc(F)cc1)c1csc(NC(=O)c2c(F)cc(N3CCC(N)C3)cc2F)n1 (stereo in doubt) [Example B089, 4-(3-aminopyrrolidin-1-yl)-2,6-difluoro-N-(4-(2-(4-fluorophenyl)but-3-yn-2-yl)thiazol-2-yl)benzamide]",6.17
12,"C#C[C@@](C)(c1ccc(F)cc1)c1csc(NC(=O)c2c(F)cc(N3CCC(N)C3)cc2F)n1 (stereo in doubt) [Example B090, 4-(3-aminopyrrolidin-1-yl)-2,6-difluoro-N-(4-(2-(4-fluorophenyl)but-3-yn-2-yl)thiazol-2-yl)benzamide]",6.97
13,"C#C[C@@](C)(c1ccc(F)cc1)c1csc(NC(=O)c2c(F)cc(N3CCC(N)C3)cc2F)n1 (stereo in doubt) [Example B091, 4-(3-aminopyrrolidin-1-yl)-2,6-difluoro-N-(4-(2-(4-fluorophenyl)but-3-yn-2-yl)thiazol-2-yl)benzamide]",7.19
14,"C#C[C@@](C)(c1ccc(Cl)cc1)c1csc(NC(=O)c2c(F)cc(N3CCNCC3CO)cc2F)n1 (stereo in doubt) [Example B097, N-[4-[1-(4-chlorophenyl)-1-methyl-prop-2-ynyl]thiazol-2-yl]-2,6-difluoro-4-[2-(hydroxymethyl)piperazin-1-yl]benzamide]",6.92
15,"C#C[C@](C)(c1ccc(Cl)cc1)c1csc(NC(=O)c2c(F)cc(N3CCNCC3CO)cc2F)n1 (stereo in doubt) [Example B098, N-[4-[1-(4-chlorophenyl)-1-methyl-prop-2-ynyl]thiazol-2-yl]-2,6-difluoro-4-[2-(hydroxymethyl)piperazin-1-yl]benzamide]",7.70
16,"C#C[C@@](C)(c1ccc(OC)cc1)c1csc(NC(=O)c2c(F)cc(N3CCNCC3)cc2F)n1 (stereo in doubt) [Example C036, 2,6-difluoro-N-[4-[1-(4-methoxyphenyl)-1-methyl-prop-2-ynyl]thiazol-2-yl]-4-piperazin-1-yl-benzamide]",7.17
17,"C#C[C@@](C)(c1csc(NC(=O)c2c(F)cc(N3CCNCC3)cc2F)n1)c1ccc(Cl)cc1F (stereo in doubt) [Example C043, N-(4-(2-(4-chloro-2-fluorophenyl)but-3-yn-2-yl)thiazol-2-yl)-2,6-difluoro-4-(piperazin-1-yl)benzamide]",6.55
18,"C#C[C@](C)(c1csc(NC(=O)c2c(F)cc(N3CCNCC3)cc2F)n1)c1ccc(Cl)cc1F (stereo in doubt) [Example C044, N-(4-(2-(4-chloro-2-fluorophenyl)but-3-yn-2-yl)thiazol-2-yl)-2,6-difluoro-4-(piperazin-1-yl)benzamide]",7.60
19,"C#C[C@](C)(c1ccc(Cl)cc1)c1nc(NC(=O)c2c(F)cc(N3CCNCC3)cc2F)sc1Cl (stereo in doubt) [Example C049, N-(5-chloro-4-(2-(4-chlorophenyl)but-3-yn-2-yl)thiazol-2-yl)-2,6-difluoro-4-(piperazin-1-yl)benzamide]",5.34
20,"C#C[C@@](C)(c1ccc(Cl)cc1)c1nc(NC(=O)c2c(F)cc(N3CCNCC3)cc2F)sc1Cl (stereo in doubt) [Example C050, N-(5-chloro-4-(2-(4-chlorophenyl)but-3-yn-2-yl)thiazol-2-yl)-2,6-difluoro-4-(piperazin-1-yl)benzamide]",6.03
